Test results as given in patent US8604229B2, “Lipoxin analogs and methods for the treatment of periodontal disease” (University of Southern California, priority 2000, dated 2013).

Legend:
PGE2 production = assay: PGE2 levels in air pouch exudates (EIA) after P. gingivalis; assay type: in vivo, BALB/c mice
Description: (§1) Six to eight week old male BALB/c mice were obtained from Taconic Farms (Germantown, N.Y.). Air pouches were raised on the dorsum by s.c. injection of 3 ml of sterile air on day 0 and day 3, and all experiments were carried out on day 6 (Sin, Y. M., et al. (1986) Ann. Rheum. Dis. 45, 873). Individual air pouches (one per mouse) were injected with either vehicle alone (0.1% ethanol), with 10 μg 15-R/S-methyl-LXA4-me or with 10 μg 15-epi-16-phenoxy-LXA4-me, followed by 500 μl of sterile PBS or ˜10^5 cells of P. gingivalis strain A7436 (OD600 0.9-1.0) originally obtained from the CF of a patient diagnosed with periodontitis. Mice were sacrificed 4 hr post-injection and individual air pouches were lavaged three times with sterile PBS (3 ml for each lavage) (Sin, Y. M. et al. (1986) Ann. Rheum. Dis. 45, 873; Hachicha, M., et al. (1999) J. Exp. Med. 189, 1923). […] Air pouch exudates were assessed for PGE2 using an enzyme immunoassay (EIA) kit (Cayman Chemical Co., Ann Arbor, Mich. [cross-reactivities in the PGE2 EIA kit were <0.04% for 6-keto PGF1α and <0.01% for LTB4, thromboxane B2 and arachidonic acid]). […]
Since PGE2 is associated with loss of attachment and bone loss in periodontal disease (Offenbacher, S., et al. (1992) J. Periodontal Res. 27, 207), we determined PGE2 levels in the air pouch exudates. […] Also, the expression of COX-2 was evaluated in exudate leukocytes. […]

COX-2 mRNA = assay: COX-2 expression in air pouch exudate leukocytes (northern blot); assay type: in vivo, BALB/c mice; settings: within the air pouch, P. gingivalis-injected mice
Description: as §1
Since PGE2 is associated with loss of attachment and bone loss in periodontal disease (Offenbacher, S., et al. (1992) J. Periodontal Res. 27, 207), we determined PGE2 levels in the air pouch exudates. […]

## CCCCCC(C)(O)/C=C/C=C\C=C\C=C\[C@@H](O)[C@@H](O)CCCC(=O)O (stereo partly drawn) [15-R/S-methyl LXA4]
PGE2 production; 10 μg/pouch, P. gingivalis-injected murine air pouch, 4 hr
  decrease of PGE2 levels in the exudates: ≤ 75%
PGE2 production; murine air pouch exudates
  P. gingivalis-induced PGE2 production in murine air pouch (in words): inhibits
COX-2 mRNA
  overall expression of COX-2 in exudates: decreased
